Laboratory results as given in the supplement of paper PMC10307832.

Columns and labels:
Test in all cases: relative viability (nuclei count vs DMSO), 5 days (fraction); higher = more cells survive
MLN4924 + Palbociclib = compound: NS(=O)(=O)OC[C@@H]1C[C@@H](n2ccc3c(N[C@H]4CCc5ccccc54)ncnc32)C[C@@H]1O [MLN4924] + CC(=O)c1c(C)c2cnc(Nc3ccc(N4CCNCC4)cn3)nc2n(C2CCCC2)c1=O [Palbociclib] (partner 0.5 µM)
Method in brief: (§1)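 Five library-drug doses in √10 steps were combined with a fixed anchor-drug dose, or a single drug was given alone, by pin tool to lung cancer cell lines in 1536-well plates the day after seeding. Nuclei were stained and counted after 5 days. Relative viability is the nuclei count in treated wells over that in vehicle wells, taken as the median of duplicate plates.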

MLN4924 + Vorinostat = compound: NS(=O)(=O)OC[C@@H]1C[C@@H](n2ccc3c(N[C@H]4CCc5ccccc54)ncnc32)C[C@@H]1O [MLN4924] + O=C(CCCCCCC(=O)Nc1ccccc1)NO [Vorinostat] (partner 1 µM)
Method in brief: as §1

GSK126 + Decitabine = compound: CC[C@H](C)N1C=C(C2=C(C=C(C=C21)C3=CN=C(C=C3)N4CCNCC4)C(=O)NCC5=C(C=C(NC5=O)C)C)C [GSK126] + Nc1ncn([C@H]2C[C@H](O)[C@@H](CO)O2)c(=O)n1 [Decitabine] (partner 2 µM)
Method in brief: as §1

GSK126 + Alpelisib = compound: CC[C@H](C)N1C=C(C2=C(C=C(C=C21)C3=CN=C(C=C3)N4CCNCC4)C(=O)NCC5=C(C=C(NC5=O)C)C)C [GSK126] + Cc1nc(NC(=O)N2CCC[C@H]2C(N)=O)sc1-c1ccnc(C(C)(C)C(F)(F)F)c1 [Alpelisib] (partner 2 µM)
Method in brief: as §1

Row | Cell Line | relative viability (MLN4924 + Palbociclib; first compound 0.04 µM) | relative viability (MLN4924 + Palbociclib; first compound 0.1265 µM) | relative viability (MLN4924 + Palbociclib; first compound 0.4 µM) | relative viability (MLN4924 + Palbociclib; first compound 1.265 µM) | relative viability (MLN4924 + Palbociclib; first compound 4 µM) | relative viability (MLN4924 + Vorinostat; first compound 0.04 µM) | relative viability (MLN4924 + Vorinostat; first compound 0.1265 µM) | relative viability (MLN4924 + Vorinostat; first compound 0.4 µM) | relative viability (MLN4924 + Vorinostat; first compound 1.265 µM) | relative viability (MLN4924 + Vorinostat; first compound 4 µM) | relative viability (GSK126 + Decitabine; first compound 0.08 µM) | relative viability (GSK126 + Decitabine; first compound 0.253 µM) | relative viability (GSK126 + Decitabine; first compound 0.8 µM) | relative viability (GSK126 + Decitabine; first compound 2.53 µM) | relative viability (GSK126 + Decitabine; first compound 8 µM) | relative viability (GSK126 + Alpelisib; first compound 0.08 µM) | relative viability (GSK126 + Alpelisib; first compound 0.253 µM) | relative viability (GSK126 + Alpelisib; first compound 0.8 µM) | relative viability (GSK126 + Alpelisib; first compound 2.53 µM) | relative viability (GSK126 + Alpelisib; first compound 8 µM)
1 | COR-L23 | 0.267 | 0.3 | 0.215 | 0.0984 | 0.105 | 0.414 | 0.34 | 0.195 | 0.0783 | 0.0885 | 0.467 | 0.373 | 0.389 | 0.448 | 0.433 | 0.814 | 0.826 | 0.792 | 0.755 | 0.647
2 | NCI-H647 | 0.22 | 0.264 | 0.0524 | 0.029 | 0.0424 | 0.414 | 0.391 | 0.0893 | 0.0464 | 0.0578 | 0.445 | 0.356 | 0.484 | 0.383 | 0.437 | 1.33 | 1.34 | 1.1 | 1.05 | 0.919
3 | LXF-289 | 0.568 | 0.458 | 0.472 | 0.194 | 0.112 | 0.654 | 0.506 | 0.462 | 0.143 | 0.115 | 0.38 | 0.36 | 0.395 | 0.388 | 0.374 | 1.1 | 1.05 | 1.02 | 1.01 | 1.02
4 | NCI-H1703 |  |  |  |  |  |  |  |  |  |  |  |  |  |  |  | 0.364 | 0.343 | 0.36 | 0.417 | 0.482
5 | NCI-H1793 | 0.338 | 0.295 | 0.442 | 0.265 | 0.214 | 0.665 | 0.662 | 0.886 | 0.328 | 0.205 | 0.601 | 0.423 | 0.48 | 0.567 | 0.475 | 0.968 | 0.783 | 0.548 | 0.511 | 0.766
6 | NCI-H522 | 0.835 | 0.693 | 0.741 | 0.348 | 0.37 | 0.704 | 0.726 | 0.567 | 0.344 | 0.378 | 0.717 | 0.587 | 0.716 | 0.581 | 0.683 |  |  |  |  | 
7 | NCI-H1648 | 0.256 | 0.231 | 0.371 | 0.259 | 0.302 | 0.249 | 0.296 | 0.276 | 0.224 | 0.309 | 0.561 | 0.562 | 0.554 | 0.633 | 0.492 |  |  |  |  | 
8 | ChaGo-K-1 | 0.75 | 0.419 | 0.365 | 0.184 | 0.159 | 0.681 | 0.593 | 0.299 | 0.167 | 0.174 | 0.526 | 0.506 | 0.525 | 0.537 | 0.544 |  |  |  |  | 
9 | Calu-6 |  |  |  |  |  |  |  |  |  |  |  |  |  |  |  | 1.04 | 0.983 | 1 | 1.01 | 1.07
10 | EBC-1 |  |  |  |  |  |  |  |  |  |  |  |  |  |  |  | 1.03 | 0.792 | 0.783 | 0.729 | 0.762
11 | IA-LM |  |  |  |  |  | 0.653 | 0.194 | 0.17 | 0.0544 | 0.0516 |  |  |  |  |  | 0.893 | 0.927 | 0.784 | 0.724 | 0.664
12 | NCI-H1563 |  |  |  |  |  |  |  |  |  |  |  |  |  |  |  | 1.02 | 0.988 | 1.02 | 0.807 | 0.828
13 | NCI-H2228 | 0.743 | 0.891 | 0.277 | 0.188 | 0.13 | 0.73 | 0.601 | 0.581 | 0.13 | 0.0923 |  |  |  |  |  | 0.848 | 0.52 | 0.691 | 0.99 | 0.783
14 | NCI-H1299 |  |  |  |  |  |  |  |  |  |  |  |  |  |  |  | 1.12 | 1 | 1.01 | 0.994 | 1.18
15 | NCI-H2342 | 0.53 | 0.575 | 0.591 | 0.635 | 0.449 | 0.809 | 0.814 | 0.837 | 0.873 | 0.625 | 0.75 | 0.7 | 0.7 | 0.628 | 0.812 |  |  |  |  | 
16 | CAL-12T | 0.403 | 0.254 | 0.161 | 0.122 | 0.182 | 0.792 | 0.921 | 0.409 | 0.259 | 0.144 |  |  |  |  |  | 1.31 | 1.3 | 1.08 | 1.22 | 1.39
17 | SW 900 |  | 0.439 | 0.388 | 0.231 | 0.231 |  | 0.414 | 0.182 | 0.175 | 0.208 | 0.444 | 0.356 | 0.459 | 0.487 | 0.462 |  |  |  |  | 
18 | A549 |  |  |  |  |  |  |  |  |  |  | 0.224 | 0.299 | 0.26 | 0.253 | 0.272 | 0.917 | 0.75 | 0.749 | 0.826 | 0.796
19 | NCI-H596 |  |  |  |  |  | 0.471 | 0.597 | 0.601 | 0.382 | 0.418 | 1.09 | 0.882 | 1.04 | 1.05 | 1.06 | 0.681 | 0.445 | 0.397 | 0.51 | 0.556
20 | NCI-H1792 | 0.654 | 0.583 | 0.689 | 0.453 | 0.353 |  |  |  |  |  | 0.716 | 0.546 | 0.498 | 0.412 | 0.575 | 0.703 | 0.77 | 0.78 | 0.761 | 0.636
